From publication PMC9569420 (Communications Biology, 2022)

Tests used:
CK1a1L = target: T1, CK1a1L (Homo sapiens, UniProt Q8N752); experiment: HotSpot kinase assay; assay type: biochemical; settings: read-out: % Enzyme Activity (relative to DMSO controls)
T1 construct: purchased Reaction Biology Corporation

CAMK4 = target: T2, CAMK4 (Homo sapiens, UniProt Q16566); experiment: HotSpot kinase assay; assay type: biochemical; settings: read-out: % Enzyme Activity (relative to DMSO controls)
T2 construct: purchased Reaction Biology Corporation

IRAK1 = target: T3, IRAK1 (Homo sapiens, UniProt P51617); experiment: HotSpot kinase assay; assay type: biochemical; settings: read-out: % Enzyme Activity (relative to DMSO controls)
T3 construct: purchased Reaction Biology Corporation

CAMK1b = target: T4, CAMK1b (Homo sapiens, UniProt Q6P2M8); experiment: HotSpot kinase assay; assay type: biochemical; settings: read-out: % Enzyme Activity (relative to DMSO controls)
T4 construct: purchased Reaction Biology Corporation

P38a/MAPK14 = target: T5, P38a/MAPK14 (Homo sapiens, UniProt Q16539); experiment: HotSpot kinase assay; assay type: biochemical; settings: read-out: % Enzyme Activity (relative to DMSO controls)
T5 construct: purchased Reaction Biology Corporation

NEK2 = target: T6, NEK2 (Homo sapiens, UniProt P51955); experiment: HotSpot kinase assay; assay type: biochemical; settings: read-out: % Enzyme Activity (relative to DMSO controls)
T6 construct: purchased Reaction Biology Corporation

TEC = target: T7, TEC (Homo sapiens, UniProt P42680); experiment: HotSpot kinase assay; assay type: biochemical; settings: read-out: % Enzyme Activity (relative to DMSO controls)
T7 construct: purchased Reaction Biology Corporation

PKCa = target: T8, PKCa (Homo sapiens, UniProt P17252); experiment: HotSpot kinase assay; assay type: biochemical; settings: read-out: % Enzyme Activity (relative to DMSO controls)
T8 construct: purchased Reaction Biology Corporation

PKCzeta = target: T9, PKCzeta (Homo sapiens, UniProt Q05513); experiment: HotSpot kinase assay; assay type: biochemical; settings: read-out: % Enzyme Activity (relative to DMSO controls)
T9 construct: purchased Reaction Biology Corporation

ITK = target: T10, ITK (Homo sapiens, UniProt Q08881); experiment: HotSpot kinase assay; assay type: biochemical; settings: read-out: % Enzyme Activity (relative to DMSO controls)
T10 construct: purchased Reaction Biology Corporation

LYN = target: T11, LYN (Homo sapiens, UniProt P07948); experiment: HotSpot kinase assay; assay type: biochemical; settings: read-out: % Enzyme Activity (relative to DMSO controls)
T11 construct: purchased Reaction Biology Corporation

MKK6 = target: T12, MKK6 (Homo sapiens, UniProt P52564); experiment: HotSpot kinase assay; assay type: biochemical; settings: read-out: % Enzyme Activity (relative to DMSO controls)
T12 construct: purchased Reaction Biology Corporation

RSK2 = target: T13, RSK2 (Homo sapiens, UniProt P51812); experiment: HotSpot kinase assay; assay type: biochemical; settings: read-out: % Enzyme Activity (relative to DMSO controls)
T13 construct: purchased Reaction Biology Corporation

CDK14/cyclin Y (PFTK1) = target: T14, CDK14/cyclin Y (PFTK1) (Homo sapiens, UniProt O94921); experiment: HotSpot kinase assay; assay type: biochemical; settings: read-out: % Enzyme Activity (relative to DMSO controls)
T14 construct: purchased Reaction Biology Corporation

KDR/VEGFR2 = target: T15, KDR/VEGFR2 (Homo sapiens, UniProt P35968); experiment: HotSpot kinase assay; assay type: biochemical; settings: read-out: % Enzyme Activity (relative to DMSO controls)
T15 construct: purchased Reaction Biology Corporation

STK33 = target: T16, STK33 (Homo sapiens, UniProt Q9BYT3); experiment: HotSpot kinase assay; assay type: biochemical; settings: read-out: % Enzyme Activity (relative to DMSO controls)
T16 construct: purchased Reaction Biology Corporation

GRK6 = target: T17, GRK6 (Homo sapiens, UniProt P43250); experiment: HotSpot kinase assay; assay type: biochemical; settings: read-out: % Enzyme Activity (relative to DMSO controls)
T17 construct: purchased Reaction Biology Corporation

LIMK2 = target: T18, LIMK2 (Homo sapiens, UniProt P53671); experiment: HotSpot kinase assay; assay type: biochemical; settings: read-out: % Enzyme Activity (relative to DMSO controls)
T18 construct: purchased Reaction Biology Corporation

CHK2 = target: T19, CHK2 (Homo sapiens, UniProt O96017); experiment: HotSpot kinase assay; assay type: biochemical; settings: read-out: % Enzyme Activity (relative to DMSO controls)
T19 construct: purchased Reaction Biology Corporation

RIPK4 = target: T20, RIPK4 (Homo sapiens, UniProt P57078); experiment: HotSpot kinase assay; assay type: biochemical; settings: read-out: % Enzyme Activity (relative to DMSO controls)
T20 construct: purchased Reaction Biology Corporation

CDK1/cyclin B = target: T21, CDK1/cyclin B (Homo sapiens, UniProt P06493); experiment: HotSpot kinase assay; assay type: biochemical; settings: read-out: % Enzyme Activity (relative to DMSO controls)
T21 construct: purchased Reaction Biology Corporation

CHK1 = target: T22, CHK1 (Homo sapiens, UniProt O14757); experiment: HotSpot kinase assay; assay type: biochemical; settings: read-out: % Enzyme Activity (relative to DMSO controls)
T22 construct: purchased Reaction Biology Corporation

PHKg2 = target: T23, PHKg2 (Homo sapiens, UniProt P15735); experiment: HotSpot kinase assay; assay type: biochemical; settings: read-out: % Enzyme Activity (relative to DMSO controls)
T23 construct: purchased Reaction Biology Corporation

GRK4 = target: T24, GRK4 (Homo sapiens, UniProt P32298); experiment: HotSpot kinase assay; assay type: biochemical; settings: read-out: % Enzyme Activity (relative to DMSO controls)
T24 construct: purchased Reaction Biology Corporation

DYRK1B = target: T25, DYRK1B (Homo sapiens, UniProt Q9Y463); experiment: HotSpot kinase assay; assay type: biochemical; settings: read-out: % Enzyme Activity (relative to DMSO controls)
T25 construct: purchased Reaction Biology Corporation

GRK1 = target: T26, GRK1 (Homo sapiens, UniProt Q15835); experiment: HotSpot kinase assay; assay type: biochemical; settings: read-out: % Enzyme Activity (relative to DMSO controls)
T26 construct: purchased Reaction Biology Corporation

TBK1 = target: T27, TBK1 (Homo sapiens, UniProt Q9UHD2); experiment: HotSpot kinase assay; assay type: biochemical; settings: read-out: % Enzyme Activity (relative to DMSO controls)
T27 construct: purchased Reaction Biology Corporation

SNARK/NUAK2 = target: T28, SNARK/NUAK2 (Homo sapiens, UniProt Q9H093); experiment: HotSpot kinase assay; assay type: biochemical; settings: read-out: % Enzyme Activity (relative to DMSO controls)
T28 construct: purchased Reaction Biology Corporation

PDGFRa = target: T29, PDGFRa (Homo sapiens, UniProt P16234); experiment: HotSpot kinase assay; assay type: biochemical; settings: read-out: % Enzyme Activity (relative to DMSO controls)
T29 construct: purchased Reaction Biology Corporation

MNK2 = target: T30, MNK2 (Homo sapiens, UniProt Q9HBH9); experiment: HotSpot kinase assay; assay type: biochemical; settings: read-out: % Enzyme Activity (relative to DMSO controls)
T30 construct: purchased Reaction Biology Corporation

PAK6 = target: T31, PAK6 (Homo sapiens, UniProt Q9NQU5); experiment: HotSpot kinase assay; assay type: biochemical; settings: read-out: % Enzyme Activity (relative to DMSO controls)
T31 construct: purchased Reaction Biology Corporation

CK1epsilon = target: T32, CK1epsilon (Homo sapiens, UniProt P49674); experiment: HotSpot kinase assay; assay type: biochemical; settings: read-out: % Enzyme Activity (relative to DMSO controls)
T32 construct: purchased Reaction Biology Corporation

PHKg1 = target: T33, PHKg1 (Homo sapiens, UniProt Q16816); experiment: HotSpot kinase assay; assay type: biochemical; settings: read-out: % Enzyme Activity (relative to DMSO controls)
T33 construct: purchased Reaction Biology Corporation

PAK3 = target: T34, PAK3 (Homo sapiens, UniProt O75914); experiment: HotSpot kinase assay; assay type: biochemical; settings: read-out: % Enzyme Activity (relative to DMSO controls)
T34 construct: purchased Reaction Biology Corporation

CK1g1 = target: T35, CK1g1 (Homo sapiens, UniProt Q9HCP0); experiment: HotSpot kinase assay; assay type: biochemical; settings: read-out: % Enzyme Activity (relative to DMSO controls)
T35 construct: purchased Reaction Biology Corporation

BRSK1 = target: T36, BRSK1 (Homo sapiens, UniProt Q8TDC3); experiment: HotSpot kinase assay; assay type: biochemical; settings: read-out: % Enzyme Activity (relative to DMSO controls)
T36 construct: purchased Reaction Biology Corporation

PIM2 = target: T37, PIM2 (Homo sapiens, UniProt Q9P1W9); experiment: HotSpot kinase assay; assay type: biochemical; settings: read-out: % Enzyme Activity (relative to DMSO controls)
T37 construct: purchased Reaction Biology Corporation

HaCat cells = experiment: apoptosis assay (activated caspases, SYTOX Green); assay type: cell-based, human; settings: 10µM
Protocol: Cell proliferation and viability were determined using the Cell Titer 96 Aqueous One Solution and optical density was determined using a SpectraMax M5e Molecular Devices multidetection microplate reader. […] The cells were then fixed and stained for activated caspases (red) and SYTOX Green (for integrity of plasma membrane) by Image-iT^TM LIVE red Poly Caspase Detection kit. Nuclei were stained with Hoechst. Images were acquired by laser confocal microscope ZeissLive/DuoScan equipped with oil immersion objectives 63 × 1.1 and captured in an optical slice of 0.37 µm with appropriate filters. Alternatively, immunoblots were prepared and probed with antibodies to cleaved PARP-1 or cleaved caspase 8.

TIE2/TEK = target: T38, TIE2/TEK (Homo sapiens, UniProt Q02763); experiment: HotSpot kinase assay; assay type: biochemical; settings: read-out: % Enzyme Activity (relative to DMSO controls)
T38 construct: purchased Reaction Biology Corporation

SGK1 = target: T39, SGK1 (Homo sapiens, UniProt O00141); experiment: HotSpot kinase assay; assay type: biochemical; settings: read-out: % Enzyme Activity (relative to DMSO controls)
T39 construct: purchased Reaction Biology Corporation

TAOK3/JIK = target: T40, TAOK3/JIK (Homo sapiens, UniProt Q9H2K8); experiment: HotSpot kinase assay; assay type: biochemical; settings: read-out: % Enzyme Activity (relative to DMSO controls)
T40 construct: purchased Reaction Biology Corporation
T40 sequence (Q9H2K8 whole entry): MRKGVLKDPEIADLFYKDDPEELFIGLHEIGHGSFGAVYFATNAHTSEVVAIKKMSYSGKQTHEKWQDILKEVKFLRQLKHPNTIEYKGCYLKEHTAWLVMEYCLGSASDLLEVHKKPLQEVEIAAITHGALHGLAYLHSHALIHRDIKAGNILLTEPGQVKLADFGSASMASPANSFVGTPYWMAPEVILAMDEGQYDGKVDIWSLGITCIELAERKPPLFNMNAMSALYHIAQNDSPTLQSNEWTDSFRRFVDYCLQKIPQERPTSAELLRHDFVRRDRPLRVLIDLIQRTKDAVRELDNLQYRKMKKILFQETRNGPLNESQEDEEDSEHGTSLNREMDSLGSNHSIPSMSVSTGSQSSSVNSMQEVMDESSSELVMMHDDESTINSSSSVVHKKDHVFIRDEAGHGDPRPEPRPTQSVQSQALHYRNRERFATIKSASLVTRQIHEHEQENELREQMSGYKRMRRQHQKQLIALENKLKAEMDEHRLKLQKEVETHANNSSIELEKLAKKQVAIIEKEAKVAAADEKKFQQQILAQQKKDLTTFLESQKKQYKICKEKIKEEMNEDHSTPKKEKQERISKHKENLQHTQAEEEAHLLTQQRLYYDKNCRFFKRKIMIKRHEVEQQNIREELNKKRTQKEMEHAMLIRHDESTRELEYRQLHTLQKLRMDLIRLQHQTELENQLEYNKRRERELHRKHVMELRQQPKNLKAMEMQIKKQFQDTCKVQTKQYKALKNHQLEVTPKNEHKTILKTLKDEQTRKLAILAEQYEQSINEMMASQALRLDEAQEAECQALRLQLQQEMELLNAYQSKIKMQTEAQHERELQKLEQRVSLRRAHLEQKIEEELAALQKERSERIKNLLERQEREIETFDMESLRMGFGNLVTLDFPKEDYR

T26 sequence (Q15835 whole entry): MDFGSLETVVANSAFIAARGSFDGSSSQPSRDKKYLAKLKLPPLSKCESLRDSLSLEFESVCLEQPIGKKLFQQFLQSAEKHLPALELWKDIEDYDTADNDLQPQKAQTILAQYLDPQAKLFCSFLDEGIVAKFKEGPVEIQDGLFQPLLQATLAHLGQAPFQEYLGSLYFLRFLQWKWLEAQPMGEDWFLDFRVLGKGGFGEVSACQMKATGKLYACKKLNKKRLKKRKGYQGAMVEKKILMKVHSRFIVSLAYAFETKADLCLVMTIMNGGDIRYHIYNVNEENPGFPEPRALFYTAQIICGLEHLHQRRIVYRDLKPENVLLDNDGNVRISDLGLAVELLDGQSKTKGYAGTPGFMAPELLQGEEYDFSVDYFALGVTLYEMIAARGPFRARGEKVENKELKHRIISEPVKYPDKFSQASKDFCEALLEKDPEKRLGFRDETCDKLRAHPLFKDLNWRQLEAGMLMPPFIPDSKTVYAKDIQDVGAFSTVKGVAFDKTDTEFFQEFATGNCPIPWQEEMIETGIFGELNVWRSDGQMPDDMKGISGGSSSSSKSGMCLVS
T23 sequence (P15735 whole entry): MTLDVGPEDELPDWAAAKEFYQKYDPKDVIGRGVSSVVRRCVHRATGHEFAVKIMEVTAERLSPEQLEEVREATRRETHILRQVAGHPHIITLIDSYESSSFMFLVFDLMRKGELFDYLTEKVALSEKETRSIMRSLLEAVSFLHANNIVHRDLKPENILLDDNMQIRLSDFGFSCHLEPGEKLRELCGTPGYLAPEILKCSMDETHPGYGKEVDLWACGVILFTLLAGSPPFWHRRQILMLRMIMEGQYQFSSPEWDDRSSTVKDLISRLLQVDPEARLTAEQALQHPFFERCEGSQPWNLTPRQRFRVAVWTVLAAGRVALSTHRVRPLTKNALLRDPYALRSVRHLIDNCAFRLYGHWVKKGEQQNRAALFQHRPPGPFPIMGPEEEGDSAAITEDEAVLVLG
T11 sequence (P07948 whole entry): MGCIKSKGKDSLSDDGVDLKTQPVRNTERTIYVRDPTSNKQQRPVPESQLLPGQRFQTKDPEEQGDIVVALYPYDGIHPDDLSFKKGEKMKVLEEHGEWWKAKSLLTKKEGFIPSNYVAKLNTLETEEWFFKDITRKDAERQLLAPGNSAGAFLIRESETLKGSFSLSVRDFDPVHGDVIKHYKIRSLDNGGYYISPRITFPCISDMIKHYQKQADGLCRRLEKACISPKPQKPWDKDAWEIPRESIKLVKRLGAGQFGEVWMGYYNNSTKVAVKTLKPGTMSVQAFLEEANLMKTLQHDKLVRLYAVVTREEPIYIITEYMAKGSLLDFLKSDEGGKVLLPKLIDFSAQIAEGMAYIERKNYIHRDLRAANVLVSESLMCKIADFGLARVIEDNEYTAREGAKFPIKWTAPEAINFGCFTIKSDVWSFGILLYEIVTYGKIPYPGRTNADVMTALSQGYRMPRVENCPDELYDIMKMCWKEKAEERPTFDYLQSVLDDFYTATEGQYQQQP
T1 sequence (Q8N752 whole entry): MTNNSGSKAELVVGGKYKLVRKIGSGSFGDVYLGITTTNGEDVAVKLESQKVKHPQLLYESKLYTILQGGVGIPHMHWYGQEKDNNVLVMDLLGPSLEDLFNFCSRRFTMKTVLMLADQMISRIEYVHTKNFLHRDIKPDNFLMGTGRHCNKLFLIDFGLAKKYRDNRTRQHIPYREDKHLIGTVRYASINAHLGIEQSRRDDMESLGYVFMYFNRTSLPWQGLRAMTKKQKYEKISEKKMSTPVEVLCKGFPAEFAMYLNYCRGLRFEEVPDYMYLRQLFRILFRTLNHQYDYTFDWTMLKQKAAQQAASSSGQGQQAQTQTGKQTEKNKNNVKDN
T13 sequence (P51812 whole entry): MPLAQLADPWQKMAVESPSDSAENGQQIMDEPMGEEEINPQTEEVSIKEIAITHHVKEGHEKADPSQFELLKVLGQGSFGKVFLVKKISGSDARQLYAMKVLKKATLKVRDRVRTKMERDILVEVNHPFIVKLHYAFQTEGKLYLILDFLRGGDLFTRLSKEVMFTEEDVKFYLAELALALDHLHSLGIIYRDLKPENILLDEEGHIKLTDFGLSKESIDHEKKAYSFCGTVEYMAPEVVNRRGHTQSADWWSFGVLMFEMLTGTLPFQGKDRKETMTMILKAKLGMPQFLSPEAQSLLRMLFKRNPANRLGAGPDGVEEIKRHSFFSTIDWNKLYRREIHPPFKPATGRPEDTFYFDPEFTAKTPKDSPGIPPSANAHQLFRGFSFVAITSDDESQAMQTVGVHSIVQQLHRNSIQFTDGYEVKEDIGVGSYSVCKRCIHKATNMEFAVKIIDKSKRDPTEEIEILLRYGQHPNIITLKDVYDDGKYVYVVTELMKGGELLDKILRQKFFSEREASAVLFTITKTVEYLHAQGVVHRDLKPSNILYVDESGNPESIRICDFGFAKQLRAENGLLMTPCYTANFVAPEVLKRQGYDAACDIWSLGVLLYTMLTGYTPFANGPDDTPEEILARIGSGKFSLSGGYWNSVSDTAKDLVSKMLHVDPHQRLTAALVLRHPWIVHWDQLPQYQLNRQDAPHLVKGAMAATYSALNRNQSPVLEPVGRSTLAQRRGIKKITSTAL
T2 sequence (Q16566 whole entry): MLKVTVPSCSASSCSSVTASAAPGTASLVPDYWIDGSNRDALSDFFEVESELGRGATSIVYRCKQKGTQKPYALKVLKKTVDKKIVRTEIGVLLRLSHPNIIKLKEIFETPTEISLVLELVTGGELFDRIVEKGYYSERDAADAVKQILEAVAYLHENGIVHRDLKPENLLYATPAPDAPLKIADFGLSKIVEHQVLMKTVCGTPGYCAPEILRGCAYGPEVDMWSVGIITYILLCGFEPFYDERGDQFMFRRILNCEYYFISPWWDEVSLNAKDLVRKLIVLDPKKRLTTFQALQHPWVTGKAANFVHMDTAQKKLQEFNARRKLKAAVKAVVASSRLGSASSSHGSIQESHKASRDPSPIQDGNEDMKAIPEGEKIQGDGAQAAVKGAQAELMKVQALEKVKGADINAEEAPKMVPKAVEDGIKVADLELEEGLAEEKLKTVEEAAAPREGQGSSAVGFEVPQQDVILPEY
T9 sequence (Q05513 whole entry): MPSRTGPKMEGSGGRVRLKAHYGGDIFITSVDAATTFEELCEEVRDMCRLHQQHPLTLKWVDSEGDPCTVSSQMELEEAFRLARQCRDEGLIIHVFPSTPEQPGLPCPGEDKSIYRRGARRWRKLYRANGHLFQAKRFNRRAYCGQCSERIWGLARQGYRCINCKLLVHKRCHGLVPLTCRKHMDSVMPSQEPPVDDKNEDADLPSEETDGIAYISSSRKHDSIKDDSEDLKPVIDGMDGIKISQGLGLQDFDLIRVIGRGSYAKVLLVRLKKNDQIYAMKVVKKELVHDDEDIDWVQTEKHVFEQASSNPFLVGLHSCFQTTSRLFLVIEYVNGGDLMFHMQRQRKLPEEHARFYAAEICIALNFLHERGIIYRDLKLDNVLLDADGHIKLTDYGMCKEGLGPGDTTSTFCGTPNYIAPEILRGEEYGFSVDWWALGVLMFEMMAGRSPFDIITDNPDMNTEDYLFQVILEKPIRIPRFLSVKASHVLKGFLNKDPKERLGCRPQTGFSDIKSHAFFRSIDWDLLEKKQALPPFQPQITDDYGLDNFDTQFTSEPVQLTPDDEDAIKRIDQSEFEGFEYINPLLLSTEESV
T22 sequence (O14757 whole entry): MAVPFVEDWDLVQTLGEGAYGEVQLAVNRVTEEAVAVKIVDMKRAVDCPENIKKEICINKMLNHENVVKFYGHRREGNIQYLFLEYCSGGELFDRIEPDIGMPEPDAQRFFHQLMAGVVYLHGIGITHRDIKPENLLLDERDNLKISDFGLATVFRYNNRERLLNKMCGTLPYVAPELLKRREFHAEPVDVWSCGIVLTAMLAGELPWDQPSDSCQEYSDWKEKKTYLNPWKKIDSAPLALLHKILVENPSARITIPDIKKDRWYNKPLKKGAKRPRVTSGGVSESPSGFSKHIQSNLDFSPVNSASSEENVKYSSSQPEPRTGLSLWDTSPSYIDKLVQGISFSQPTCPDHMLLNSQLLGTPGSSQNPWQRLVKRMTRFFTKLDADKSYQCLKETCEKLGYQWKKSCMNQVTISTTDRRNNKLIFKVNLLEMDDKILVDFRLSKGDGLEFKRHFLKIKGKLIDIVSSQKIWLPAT

Compound `CO[C@@H]1[C@H](N(C)C(=O)CCC(=O)NCc2cn(CCCS(=O)(=O)O)nn2)C[C@H]2O[C@]1(C)n1c3ccccc3c3c4c(c5c6ccccc6n2c5c31)C(=O)NC4` [CIMSS] has a remaining activity at 10 µM (CK1a1L) of 82.8%, a remaining activity at 10 µM (CAMK4) of 66.6% and a remaining activity at 10 µM (IRAK1) of 3.57%. For the same compound, the remaining activity at 10 µM (CAMK1b) was 59.5%, the remaining activity at 10 µM (P38a/MAPK14) was 102% and the remaining activity at 10 µM (NEK2) was 18.8%. The remaining activity at 10 µM (TEC) was 19.9%, the remaining activity at 10 µM (PKCa) was 0.86% and the remaining activity at 10 µM (PKCzeta) was 55.8%. It also gave a remaining activity at 10 µM (ITK) of 4.12%, a remaining activity at 10 µM (LYN) of 2.5% and a remaining activity at 10 µM (MKK6) of 59.7%. For the same compound, the remaining activity at 10 µM (RSK2) was 1.69%, the remaining activity at 10 µM (CDK14/cyclin Y (PFTK1)) was 74.5% and the remaining activity at 10 µM (KDR/VEGFR2) was 7.22%. For the same compound, the remaining activity at 10 µM (STK33) was 9.17%, the remaining activity at 10 µM (GRK6) was 8.36% and the remaining activity at 10 µM (LIMK2) was 67.4%. It also gave a remaining activity at 10 µM (CHK2) of 25.4%, a remaining activity at 10 µM (RIPK4) of 99.1% and a remaining activity at 10 µM (CDK1/cyclin B) of 13.6%. For the same compound, the remaining activity at 10 µM (CHK1) was 4.66%, the remaining activity at 10 µM (PHKg2) was 18.4% and the remaining activity at 10 µM (GRK4) was 19.8%. For the same compound, the remaining activity at 10 µM (DYRK1B) was 0.41%, the remaining activity at 10 µM (GRK1) was 4.7% and the remaining activity at 10 µM (TBK1) was 2.01%. It also gave a remaining activity at 10 µM (SNARK/NUAK2) of 2.16%, a remaining activity at 10 µM (PDGFRa) of 6.05% and a remaining activity at 10 µM (MNK2) of 4.79%. The remaining activity at 10 µM (PAK6) was 9.79%, the remaining activity at 10 µM (CK1epsilon) was 38.8% and the remaining activity at 10 µM (PHKg1) was 3.74%. The remaining activity at 10 µM (PAK3) was 6.48%, the remaining activity at 10 µM (CK1g1) was 95.9% and the remaining activity at 10 µM (BRSK1) was 1.55%. The remaining activity at 10 µM (PIM2) was 21.3%, the induction of apoptosis (HaCat cells) was “did not induce apoptosis” and the remaining activity at 10 µM (TIE2/TEK) was 7.56%. It also gave a remaining activity at 10 µM (SGK1) of 13.4% and a remaining activity at 10 µM (TAOK3/JIK) of 12.8%.
